Experimental data taken from US20040091960A1, “Novel physiologically active peptides and use thereof” (priority 2000, published 2004).

Test system: LH secretion
Experiment: LH secretion promoting action (LH blood level)
Assay type: in vivo
Conditions: statement only, no experiment described

Substance: polypeptide of the present invention: mouse matured GALR2 ligand, amino acid sequence SEQ ID NO: 1, ligand peptide for galanin receptor (APAHRGRGGWTLNSAGYLLGPVLPVSSKADQGRKRDSALEILDLWKIIDGLPYSHSPRMT; Mouse)
- LH secretion promoting action (LH blood level increasing action): specific LH blood level increasing action
